Literature values, collected in publication PMC11912471 (Journal of Medicinal Chemistry, 2025).
Where a name gives a salt, the structure may show the parent alone.

Key:
[1] = target: homogeneous mouse kidney ODC; set-up: method as in PMID 3861182; details: competitive; read-out: Ki, competitive inhibitor of mouse kidney ODC; cited from earlier work
[2] = target: homogeneous liver adenosylmethionine decarboxylase; set-up: method as in PMID 3861182; details: irreversible; read-out: Ki, irreversible inhibitor of liver adenosylmethionine decarboxylase; cited from earlier work
human ODC = test system: human ODC; set-up: method as in earlier work; details: 49−51; cited from earlier work
[3] = cited from earlier work
[4] = no reference printed for this property; cited from earlier work

NCCCON [APA, 3-(Aminooxy)propan-1-Amine Dihydrochloride]
Ki [1]: 0.0032 µM | Ki [2]: 50 µM | IC50 against human ODC (in words) (human ODC): low nM range | potency against human ODC, times higher than that of DFMO (human ODC): 10,000 times | pKa of hydroxyl amine [3]: ~5.9 | water solubility (in words) [4]: highly water-soluble
